Experimental data taken from publication PMC11740379, “Novel Enyne-Modified 1,4-Thiazepines as Epidermal Growth Factor Receptor Inhibitors: Anticancer and Computational Studies” (ACS Omega, 2024).
Read-outs that look alike come from different tables or passages of the source.

How the values were obtained:
[1] = XTT cytotoxicity assay, non-tumorigenic cells; type: cell-based, human; settings: human, HEK-293 cells (nontumorigenic), read-out: cell viability
Method: (§1) Human cell lines for breast cancer (MCF-7), lung cancer (A549), prostate cancer (PC-3), and nontumorigenic HEK-293 were sourced from the Health Protection Agency (U.K.) and the Interlab Cell Line Collection (Italy). The cells were cultured in RPMI medium (Sigma) supplemented with 10% heat-inactivated fetal bovine serum, 1% penicillin, and 1% L-glutamine, and incubated in a humidified CO2 atmosphere at 37 °C.
(§2) To evaluate the cytotoxic effects of TZEPs, which were dissolved in dimethyl sulfoxide (DMSO), the XTT assay (2,3-bis(2-methoxy-4-nitro-5-sulfophenyl)-2H-tetrazolium-5-carboxanilide) was employed. Cells were plated in 96-well plates at a density of 10^4 cells per well and exposed to varying concentrations of TZEPs (ranging from 1 to 250 μM) for 24, 48, and 72 h. Following the incubation, 100 μL of XTT was added to each well, and the plates were incubated for an additional 4 h at 37 °C. The resulting color change was measured by recording the absorbance at 570 nm using a microplate reader (Tecan).
(§3) The IC50 values, which indicate the concentration of the compound required to inhibit 50% of cancer cell proliferation, were determined using Biosoft CalcuSyn 2.1 software. […] Conversely, an SI less than 1 means the drug is more toxic to normal cells than to target cells, which is undesirable in therapeutic contexts. In the literature, a selectivity index of 2 or higher is generally considered significant, implying that the compound selectively targets diseased cells with relatively low toxicity to healthy cells.[15]

HEK-293 cells = assay: XTT cytotoxicity assay, non-tumorigenic cells; type: cell-based, human; settings: Homo sapiens, HEK293; XTT assay; exposure time of the IC50 not stated (24, 48, 72 h tested)
Method: as §1, §2, §3

MCF-7 cells = assay: XTT cytotoxicity assay, breast cancer cells; type: cell-based, human
Method: (§4) The cells were cultured in RPMI medium (Sigma) supplemented with 10% heat-inactivated fetal bovine serum, 1% penicillin, and 1% L-glutamine, and incubated in a humidified CO2 atmosphere at 37 °C.
as §2, with “Cells were plated in 96-well plates at a density of 10^4 cells per well and exposed to varying concentrations of TZEPs (ranging from 1 to 250 μM) for 24, 48, and 72 h.” left out
(§5) Conversely, an SI less than 1 means the drug is more toxic to normal cells than to target cells, which is undesirable in therapeutic contexts.

A549 cells = assay: XTT cytotoxicity assay, lung cancer cells; type: cell-based, human; settings: for IC50: A549
Method: as §4
as §2, with “Cells were plated in 96-well plates at a density of 10^4 cells per well and exposed to varying concentrations of TZEPs (ranging from 1 to 250 μM) for 24, 48, and 72 h.” left out
as §5

EGFRWT mRNA = assay: qRT-PCR of EGFR mRNA expression; type: cell-based, human; settings: vs untreated control
Method: To measure the mRNA expression levels of apoptosis-related genes B-cell lymphoma 2 (Bcl-2), Bcl-2-associated X protein (Bax), Cyclin-dependent kinase 2 (CDK2), and Cyclin E, total mRNA was extracted from cells treated with compound 6f using Trizol reagent (Sigma). cDNA was synthesized from the total mRNA using the Qiagen cDNA synthesis kit according to the manufacturer’s instructions. The following primers, each at a concentration of 350 nM, were employed: Bcl-2; forward ([…]), reverse ([…]); Bax; forward ([…]), reverse ([…]); Caspase-8; forward ([…]), reverse ([…]); Caspase-9; forward (TGTCTACGGCACAGATGGA), reverse (GGACTCGTCTTCAGGGGA); EGFRWT: forward ([…]), reverse (CCTGTGCCAGGGACCTTAC−); EGFRT790 M forward ([…]), reverse ([…]); human GAPDH; forward ([…]), reverse (AGATGGTGATGGGCTTCCC). The PCR mix was prepared with 1× buffer containing 0.2 mM dNTPs, 1.6 mM MgCl2, […] of each primer set, cDNA, and 0.25 U Taq polymerase. The PCR conditions were as follows: an initial denaturation at 95 °C for 60 s, followed by 50 cycles of 95 °C for 15 s, 60 °C for 15 s, and 72 °C for 60 s. The cycle threshold (CT) for each replicate was normalized to the average CT of the endogenous control (GAPDH). The relative quantification of gene expression was calculated using the comparative CT method.[17]

EGFRWT kinase = EGFRWT kinase (Homo sapiens, UniProt P00533); assay: EGFR kinase inhibition assay (HTRF KinEASE-TK); type: biochemical
EGFRWT kinase, sequence (P00533 25-1210): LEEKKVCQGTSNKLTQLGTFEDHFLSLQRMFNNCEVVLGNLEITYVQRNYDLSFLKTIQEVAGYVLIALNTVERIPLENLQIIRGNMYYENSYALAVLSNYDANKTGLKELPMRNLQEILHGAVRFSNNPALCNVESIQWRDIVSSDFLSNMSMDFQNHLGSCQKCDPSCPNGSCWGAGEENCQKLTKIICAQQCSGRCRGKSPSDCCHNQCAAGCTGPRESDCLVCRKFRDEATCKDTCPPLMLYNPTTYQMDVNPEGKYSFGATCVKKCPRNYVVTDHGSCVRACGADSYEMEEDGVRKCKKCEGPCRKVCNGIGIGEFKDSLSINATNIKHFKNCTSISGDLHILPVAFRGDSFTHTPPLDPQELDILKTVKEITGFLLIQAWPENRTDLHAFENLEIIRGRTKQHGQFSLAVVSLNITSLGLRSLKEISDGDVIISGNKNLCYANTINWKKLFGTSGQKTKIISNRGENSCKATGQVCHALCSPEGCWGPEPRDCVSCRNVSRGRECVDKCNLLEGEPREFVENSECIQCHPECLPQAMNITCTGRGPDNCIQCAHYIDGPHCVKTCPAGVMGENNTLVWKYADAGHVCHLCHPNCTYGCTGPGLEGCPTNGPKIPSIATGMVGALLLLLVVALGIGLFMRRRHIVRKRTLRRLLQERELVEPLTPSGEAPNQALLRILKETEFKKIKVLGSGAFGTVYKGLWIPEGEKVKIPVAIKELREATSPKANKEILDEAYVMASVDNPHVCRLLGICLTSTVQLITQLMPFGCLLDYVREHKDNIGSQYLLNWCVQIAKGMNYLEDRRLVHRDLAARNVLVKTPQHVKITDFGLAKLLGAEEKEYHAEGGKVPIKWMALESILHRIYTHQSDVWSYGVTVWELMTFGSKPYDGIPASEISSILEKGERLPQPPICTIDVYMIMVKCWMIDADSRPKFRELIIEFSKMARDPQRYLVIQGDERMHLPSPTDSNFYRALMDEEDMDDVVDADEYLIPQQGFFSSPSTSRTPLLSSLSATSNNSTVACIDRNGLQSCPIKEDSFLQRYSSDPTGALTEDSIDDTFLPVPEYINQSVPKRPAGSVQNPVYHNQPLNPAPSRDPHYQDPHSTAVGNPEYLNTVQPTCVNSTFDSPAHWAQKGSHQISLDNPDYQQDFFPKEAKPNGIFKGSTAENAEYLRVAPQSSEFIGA
Method: The inhibitory effects of the target compounds on various EGFR kinases were assessed using a homogeneous time-resolved fluorescence (HTRF) assay, employing the HTRF KinEASE-TK kit (Cat# 62TK0PEC, Cisbio).[18] TZEP7 was tested at a range of diluted concentrations in the presence of 1% dimethyl sulfoxide (DMSO), with the kinase and compounds preincubated for 5 min. The reactions were initiated by adding ATP and TK-substrate-biotin, followed by a 60 min incubation at room temperature. […] After a 1 h incubation of the plate, readings were taken on a microplate reader under standard HTRF conditions. IC50 values were calculated using GraphPad Prism 5.0 software. Each reaction was duplicated, and at least three independent determinations were conducted. The data were analyzed using GraphPad Prism.

[2] = XTT cytotoxicity assay, non-tumorigenic cells; type: cell-based; settings: human, HEK-293 cells (nontumorigenic); HEK293, 0.1 μM; read-out: cell viability

## Cc1cc(C2=NCC(=CC#Cc3ccccc3)SC(c3ccc(Cl)cc3)=C2)ccc1F [TZEP7]
[1]; HEK293, 1 μM
  viability at 1 µM: 57.1%
[1]; HEK293, 10 μM
  viability at 10 µM: 44.1%
[1]; HEK293, 50 μM
  viability at 50 µM: 31.3%
[1]; HEK293, 100 μM
  viability at 100 µM: 24.2%
HEK-293 cells
  IC50: 54.3 ± 0.9 µM
MCF-7 cells; Homo sapiens, MCF7, MCF-7, 0.1 μM, read-out: cell viability
  viability at 0.1 µM: 68%
MCF-7 cells; Homo sapiens, MCF7, MCF-7, 1 μM, read-out: cell viability
  viability at 1 µM: 54%
MCF-7 cells; Homo sapiens, MCF7, MCF-7, 10 μM, read-out: cell viability
  viability at 10 µM: 44%
MCF-7 cells; Homo sapiens, MCF7, MCF-7, 50 μM, read-out: cell viability
  viability at 50 µM: 28%
MCF-7 cells; Homo sapiens, MCF7, MCF-7, 100 μM, read-out: cell viability
  viability at 100 µM: 18%
MCF-7 cells; Homo sapiens, MCF7, XTT assay, exposure time of the IC50 not stated (24, 48, 72 h tested), read-out: IC50, breast cancer (MCF-7)
  IC50: 14.1 ± 2.1 µM
MCF-7 cells; Homo sapiens, MCF7, dose–response curve of Figure 2, read-out: IC50, MCF-7, dose–response curve
  IC50: 14.2 µM
MCF-7 cells; versus normal cells HEK-293
  Selectivity index (SI), breast cancer (MCF-7): 3.85
A549 cells; Homo sapiens, XTT assay, exposure time of the IC50 not stated (24, 48, 72 h tested), read-out: IC50, lung cancer (A549)
  IC50: 12.7 ± 2 µM
A549 cells; Homo sapiens, dose–response curve of Figure 2, read-out: IC50, A549, dose–response curve
  IC50: 12.1 µM
A549 cells; Homo sapiens, A549, 0.1 μM, read-out: cell viability
  viability at 0.1 µM: 68%
A549 cells; Homo sapiens, A549, 1 μM, read-out: cell viability
  viability at 1 µM: 53%
A549 cells; Homo sapiens, A549, 10 μM, read-out: cell viability
  viability at 10 µM: 40%
A549 cells; Homo sapiens, A549, 50 μM, read-out: cell viability
  viability at 50 µM: 30%
A549 cells; Homo sapiens, A549, 100 μM, read-out: cell viability
  viability at 100 µM: 10%
A549 cells; versus normal cells HEK-293
  Selectivity index (SI), lung cancer (A549): 4.27
EGFRWT mRNA; A549, 72 h
  downregulation of EGFRWT mRNA: 4.6 fold
EGFRWT mRNA; MCF-7, 72 h
  downregulation of EGFRWT mRNA: 3.8 fold
EGFRWT mRNA; PC-3, 72 h
  downregulation of EGFRWT mRNA: 3.4 fold
EGFRWT kinase
  IC50: 0.38 µM
EGFRWT kinase; A549 cells
  IC50: 0.36 µM
[2]
  viability at 0.1 µM: 87.3%
